Test results from ChEMBL document CHEMBL1201862, “PubChem BioAssay data set” (2004).
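Growth conditions: 96-well plates. Treatment: test compound, 48 hours, 5 concentrations. Analysis: linear interpolation between bracketing concentrations; unreached endpoints set to highest concentration. Abbreviation: GI50, concentration required for 50% inhibition of growth.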 Activity calls are given as the source filed them. Rule as the data show it: active = GI50 up to about 1.1 µM and inactive = higher.

What was measured:
Assay in all cases: NCI tumour cell line growth inhibition, 48 h
[1] = test system: DLD-1
[2] = test system: DMS-114
[3] = test system: KM-20L2
[4] = test system: LXFL 529
[5] = test system: M19-MEL
[6] = test system: RXF 631
[7] = test system: XF498
[8] = test system: HOP-18

SMILES: Cc1cc(N(CCC#N)CCC#N)ccc1/C=C\C(=O)Nc1ccccc1
- GI50 [1]: 8.17 µM (inactive)
- GI50 [2]: 49.7 µM (inactive)
- GI50 [3]: 1.07 µM (active)
- GI50 [4]: 0.859 µM (active)
- GI50 [5]: 36.7 µM (inactive)
- GI50 [6]: > 100 µM (inactive)
- GI50 [7]: > 100 µM (inactive)

SMILES: C/C(CN1C(=O)c2ccccc2C1=O)=N\NS(=O)(=O)c1cccc(C(=O)O)c1
- GI50 [1]: > 100 µM (inactive)
- GI50 [2]: > 100 µM (inactive)
- GI50 [8]: > 100 µM (inactive)
- GI50 [3]: > 100 µM (inactive)
- GI50 [4]: > 100 µM (inactive)
- GI50 [5]: > 100 µM (inactive)
- GI50 [6]: > 100 µM (inactive)
- GI50 [7]: > 100 µM (inactive)

SMILES: CCc1cccc(C(C)C)c1NC(=O)C(=O)CC(=O)c1c(C)[n+]([O-])c2ccccc2[n+]1[O-]
- GI50 [1]: > 100 µM (inactive)
- GI50 [2]: > 100 µM (inactive)
- GI50 [3]: > 100 µM (inactive)
- GI50 [4]: > 100 µM (inactive)
- GI50 [5]: > 100 µM (inactive)
- GI50 [6]: > 100 µM (inactive)
- GI50 [7]: > 100 µM (inactive)

SMILES: O=c1[nH]c(=O)n(C2CC(O)C(CO)O2)cc1OS(=O)(=O)C(F)(F)F (configuration not stated)
- GI50 [1]: > 100 µM (inactive)
- GI50 [2]: > 100 µM (inactive)
- GI50 [8]: > 100 µM (inactive)
- GI50 [3]: > 100 µM (inactive)
- GI50 [4]: > 100 µM (inactive)
- GI50 [5]: > 100 µM (inactive)
- GI50 [6]: > 100 µM (inactive)
- GI50 [7]: < 0.01 µM (active)

SMILES: CO[C@@]1(c2ccccc2)O[C@H]2OCCC2[C@H]1c1ccc(Cl)cc1 (some centres not stated)
- GI50 [1]: 37.7 µM (inactive)
- GI50 [2]: 31.8 µM (inactive)
- GI50 [8]: 22.9 µM (inactive)
- GI50 [3]: 32.1 µM (inactive)
- GI50 [4]: 27.9 µM (inactive)
- GI50 [6]: 29.4 µM (inactive)
- GI50 [7]: 25 µM (inactive)
